# What was measured:
# Assay type in all cases: in vivo
# [1] = test system: barnyardgrass (Echinochloa crus-galli); assay: Test B flooded paddy test, plant response rating; settings: 250 g ai/ha; Flood; scale of 0 to 100 where 0 is no effect and 100 is complete control; 13 to 15 days
# Method in brief: (§1)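 Under a constant 3 cm flood, test compounds went directly into the paddy water. Following 13 to 15 days of greenhouse growth, treated species and controls were compared by eye.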
# [2] = test system: rice (Oryza sativa); assay: Test B flooded paddy test, plant response rating; settings: 250 g ai/ha; Flood; scale of 0 to 100 where 0 is no effect and 100 is complete control; 13 to 15 days
# Method in brief: as §1
# [3] = test system: sedge, umbrella (small-flower umbrella sedge, Cyperus difformis); assay: Test B flooded paddy test, plant response rating; settings: 250 g ai/ha; Flood; scale of 0 to 100 where 0 is no effect and 100 is complete control; 13 to 15 days
# Method in brief: as §1
# [4] = test system: blackgrass (Alopecurus myosuroides); assay: Test C preemergence, plant response rating; settings: Preemergence
# Method in brief: (§2)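 Pre-emergence: seeds sown in loam soil–sand blend or silt loam and sprayed with test chemicals in a non-phytotoxic solvent mixture with surfactant. Post-emergence: plants 2 to 18 cm (1- to 4-leaf stage) in peat-based potting medium, same formulation. Greenhouse 13 to 15 d; visual rating 0 (no effect) to 100 (complete control) versus controls.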
# [5] = test system: corn (Zea mays); assay: Test C preemergence, plant response rating; settings: Preemergence
# Method in brief: as §2
# [6] = test system: crabgrass, large (large crabgrass, Digitaria sanguinalis); assay: Test C preemergence, plant response rating; settings: Preemergence
# Method in brief: as §2
# [7] = test system: foxtail, giant (giant foxtail, Setaria faberii); assay: Test C preemergence, plant response rating; settings: Preemergence
# Method in brief: as §2
# [8] = test system: lambsquarters (Chenopodium album); assay: Test C preemergence, plant response rating; settings: Preemergence
# Method in brief: as §2
# [9] = test system: morningglory (Ipomoea coccinea); assay: Test C preemergence, plant response rating; settings: Preemergence
# Method in brief: as §2
# [10] = test system: nutsedge, yellow (yellow nutsedge, Cyperus esculentus); assay: Test C preemergence, plant response rating; settings: Preemergence
# Method in brief: as §2
# [11] = test system: oilseed rape (Brassica napus); assay: Test C preemergence, plant response rating; settings: Preemergence
# Method in brief: as §2
# [12] = test system: ragweed (common ragweed, Ambrosia elatior); assay: Test C preemergence, plant response rating; settings: Preemergence
# Method in brief: as §2
# [13] = test system: ryegrass, Italian (Italian ryegrass, Lolium multiflorum); assay: Test C preemergence, plant response rating; settings: Preemergence
# Method in brief: as §2
# [14] = test system: soybean (Glycine max); assay: Test C preemergence, plant response rating; settings: Preemergence
# Method in brief: as §2
# [15] = test system: velvetleaf (Abutilon theophrasti); assay: Test C preemergence, plant response rating; settings: Preemergence
# Method in brief: as §2
# [16] = test system: waterhemp (common waterhemp, Amaranthus rudis); assay: Test C preemergence, plant response rating; settings: Preemergence
# Method in brief: as §2
# [17] = test system: wheat (winter wheat, Triticum aestivum); assay: Test C preemergence, plant response rating; settings: Preemergence
# Method in brief: as §2
# [18] = test system: surinam grass (Brachiaria decumbens); assay: Test C preemergence, plant response rating
# [19] = test system: wild poinsettia (Euphorbia heterophylla); assay: Test C preemergence, plant response rating
# [20] = test system: oat, wild (wild oat Avena fatua); assay: Test C preemergence, plant response rating
compound,measurement,setting,value
C=C(Br)COC(=O)c1c(Br)cccc1Oc1ncc(Cl)cn1 [Compound 61],"Plant response rating, Barnyardgrass",[1],20
same,"Plant response rating, Rice",[2],0
same,"Plant response rating, Sedge, Umbrella",[3],100
same,"Plant response rating, Blackgrass","[4]; 62 g ai/ha, scale of 0 to 100",0
same,"Plant response rating, Blackgrass","[4]; 125 g ai/ha, scale of 0 to 100",5
same,"Plant response rating, Blackgrass","[4]; 16 g ai/ha, scale 0 to 100",0
same,"Plant response rating, Blackgrass","[4]; 31 g ai/ha, scale 0 to 100",0
same,"Plant response rating, Corn","[5]; 62 g ai/ha, scale of 0 to 100",10
same,"Plant response rating, Corn","[5]; 125 g ai/ha, scale of 0 to 100",0
same,"Plant response rating, Corn","[5]; 16 g ai/ha, scale 0 to 100",0
same,"Plant response rating, Corn","[5]; 31 g ai/ha, scale 0 to 100",0
same,"Plant response rating, Crabgrass, Large","[6]; 62 g ai/ha, scale of 0 to 100",75
same,"Plant response rating, Crabgrass, Large","[6]; 125 g ai/ha, scale of 0 to 100",90
same,"Plant response rating, Crabgrass, Large","[6]; 16 g ai/ha, scale 0 to 100",0
same,"Plant response rating, Crabgrass, Large","[6]; 31 g ai/ha, scale 0 to 100",10
same,"Plant response rating, Foxtail, Giant","[7]; 62 g ai/ha, scale of 0 to 100",60
same,"Plant response rating, Foxtail, Giant","[7]; 125 g ai/ha, scale of 0 to 100",65
same,"Plant response rating, Foxtail, Giant","[7]; 16 g ai/ha, scale 0 to 100",0
same,"Plant response rating, Foxtail, Giant","[7]; 31 g ai/ha, scale 0 to 100",50
same,"Plant response rating, Lambsquarters","[8]; 125 g ai/ha, scale of 0 to 100",60
same,"Plant response rating, Lambsquarters","[8]; 16 g ai/ha, scale 0 to 100",5
same,"Plant response rating, Lambsquarters","[8]; 31 g ai/ha, scale 0 to 100",15
same,"Plant response rating, Lambsquarters","[8]; 62 g ai/ha, scale 0 to 100",50
same,"Plant response rating, Morningglory","[9]; 125 g ai/ha, scale of 0 to 100",0
same,"Plant response rating, Morningglory","[9]; 16 g ai/ha, scale 0 to 100",0
same,"Plant response rating, Morningglory","[9]; 31 g ai/ha, scale 0 to 100",0
same,"Plant response rating, Morningglory","[9]; 62 g ai/ha, scale 0 to 100",0
same,"Plant response rating, Nutsedge, Yellow","[10]; 125 g ai/ha, scale of 0 to 100",0
same,"Plant response rating, Nutsedge, Yellow","[10]; 16 g ai/ha, scale 0 to 100",0
same,"Plant response rating, Nutsedge, Yellow","[10]; 31 g ai/ha, scale 0 to 100",0
same,"Plant response rating, Nutsedge, Yellow","[10]; 62 g ai/ha, scale 0 to 100",0
same,"Plant response rating, Oilseed Rape","[11]; 125 g ai/ha, scale of 0 to 100",10
same,"Plant response rating, Oilseed Rape","[11]; 16 g ai/ha, scale 0 to 100",0
same,"Plant response rating, Oilseed Rape","[11]; 31 g ai/ha, scale 0 to 100",0
same,"Plant response rating, Oilseed Rape","[11]; 62 g ai/ha, scale 0 to 100",0
same,"Plant response rating, Ragweed","[12]; 125 g ai/ha, scale of 0 to 100",30
same,"Plant response rating, Ragweed","[12]; 16 g ai/ha, scale 0 to 100",0
same,"Plant response rating, Ragweed","[12]; 31 g ai/ha, scale 0 to 100",0
same,"Plant response rating, Ragweed","[12]; 62 g ai/ha, scale 0 to 100",5
same,"Plant response rating, Ryegrass, Italian","[13]; 125 g ai/ha, scale of 0 to 100",5
same,"Plant response rating, Ryegrass, Italian","[13]; 16 g ai/ha, scale 0 to 100",0
same,"Plant response rating, Ryegrass, Italian","[13]; 31 g ai/ha, scale 0 to 100",0
same,"Plant response rating, Ryegrass, Italian","[13]; 62 g ai/ha, scale 0 to 100",0
same,"Plant response rating, Soybean","[14]; 125 g ai/ha, scale of 0 to 100",10
same,"Plant response rating, Soybean","[14]; 31 g ai/ha, scale 0 to 100",20
same,"Plant response rating, Soybean","[14]; 62 g ai/ha, scale 0 to 100",20
same,"Plant response rating, Velvetleaf","[15]; 125 g ai/ha, scale of 0 to 100",5
same,"Plant response rating, Velvetleaf","[15]; 16 g ai/ha, scale 0 to 100",0
same,"Plant response rating, Velvetleaf","[15]; 31 g ai/ha, scale 0 to 100",5
same,"Plant response rating, Velvetleaf","[15]; 62 g ai/ha, scale 0 to 100",5
same,"Plant response rating, Waterhemp","[16]; 125 g ai/ha, scale of 0 to 100",100
same,"Plant response rating, Waterhemp","[16]; 16 g ai/ha, scale 0 to 100",50
same,"Plant response rating, Waterhemp","[16]; 31 g ai/ha, scale 0 to 100",75
same,"Plant response rating, Waterhemp","[16]; 62 g ai/ha, scale 0 to 100",90
same,"Plant response rating, Wheat","[17]; 125 g ai/ha, scale of 0 to 100",10
same,"Plant response rating, Wheat","[17]; 16 g ai/ha, scale 0 to 100",0
same,"Plant response rating, Wheat","[17]; 31 g ai/ha, scale 0 to 100",0
same,"Plant response rating, Wheat","[17]; 62 g ai/ha, scale 0 to 100",5
same,"Plant response rating, Surinam Grass","[18]; 16 g ai/ha, scale 0 to 100",0
same,"Plant response rating, Surinam Grass","[18]; 31 g ai/ha, scale 0 to 100",10
same,"Plant response rating, Surinam Grass","[18]; 62 g ai/ha, scale 0 to 100",60
same,"Plant response rating, Surinam Grass","[18]; 125 g ai/ha, scale of 0 to 100",25
same,"Plant response rating, Poinsettia, Wild","[19]; 16 g ai/ha, scale 0 to 100",0
same,"Plant response rating, Poinsettia, Wild","[19]; 31 g ai/ha, scale 0 to 100",0
same,"Plant response rating, Poinsettia, Wild","[19]; 62 g ai/ha, scale 0 to 100",0
same,"Plant response rating, Poinsettia, Wild","[19]; 125 g ai/ha, scale of 0 to 100",0
same,"Plant response rating, Oat, Wild","[20]; 16 g ai/ha, scale 0 to 100",0
same,"Plant response rating, Oat, Wild","[20]; 31 g ai/ha, scale 0 to 100",0
same,"Plant response rating, Oat, Wild","[20]; 62 g ai/ha, scale 0 to 100",5
same,"Plant response rating, Oat, Wild","[20]; 125 g ai/ha, scale of 0 to 100",5

# — patent publication US11053204B2, “Pyrimidinyloxy benzene derivatives as herbicides” (FMC Corporation, priority 2015, dated 2021)
